{"source": "paper PMC5218480", "about": "(PLoS ONE, 2017)", "system": "MV-4-11 cells", "assay": "Gene expression microarray analysis (Affymetrix PrimeView) and GSEA", "type": "cell-based, human", "set-up": "RFU PODN (11730768_x_at) / Fold change /veh PODN (11730768_x_at) / RFU LINC00158 (11744669_a_at) / Fold change /veh LINC00158 (11744669_a_at) / RFU DUSP10 (11751237_a_at) / Fold change /veh DUSP10 (11751237_a_at) / RFU ID3 (11757404_x_at) / Fold change /veh ID3 (11757404_x_at) / RFU PLEKHG5 (11737974_s_at) / Fold change /veh PLEKHG5 (11737974_s_at) / RFU LRRC4B (11730491_at) / Fold change /veh LRRC4B (11730491_at) / RFU GIMAP4 (11747438_a_at) / Fold change /veh GIMAP4 (11747438_a_at) / RFU KRT8 (11758183_x_at) / Fold change /veh KRT8 (11758183_x_at) / RFU CNN1 (11734310_a_at) / Fold change /veh CNN1 (11734310_a_at) / RFU VPS37D (11726825_at) / Fold change /veh VPS37D (11726825_at) / RFU C10orf10 (11716522_x_at) / Fold change /veh C10orf10 (11716522_x_at) / RFU KIR2DL2 /// KIR2DL4 /// KIR2DL5A /// KIR2DL5B /// KIR2DS1 /// KIR2DS2 /// KIR2DS3 /// KIR2DS4 /// KIR3DL3 /// KIR3DL3 /// KIR3DS1 (11738374_at) / Fold change /veh KIR2DL2 /// KIR2DL4 /// KIR2DL5A /// KIR2DL5B /// KIR2DS1 /// KIR2DS2 /// KIR2DS3 /// KIR2DS4 /// KIR3DL3 /// KIR3DL3 /// KIR3DS1 (11738374_at) / RFU C1QL1 (11718748_at) / Fold change /veh C1QL1 (11718748_at) / RFU TMPRSS4 (11747572_a_at) / Fold change /veh TMPRSS4 (11747572_a_at) / RFU HAMP (11756126_x_at) / Fold change /veh HAMP (11756126_x_at) / RFU RNFT2 (11725882_a_at) / Fold change /veh RNFT2 (11725882_a_at) / RFU NR4A2 (11747474_a_at) / Fold change /veh NR4A2 (11747474_a_at) / RFU ABCC12 (11746883_a_at) / Fold change /veh ABCC12 (11746883_a_at) / RFU TMEM136 (11760407_x_at) / Fold change /veh TMEM136 (11760407_x_at) / RFU CLDN22 /// WWC2 (11732394_at) / Fold change /veh CLDN22 /// WWC2 (11732394_at) / RFU HLA-DPB1 (11760878_x_at) / Fold change /veh HLA-DPB1 (11760878_x_at) / RFU SPINT1 (11716480_a_at) / Fold change /veh SPINT1 (11716480_a_at) / RFU GAP43 (11754022_s_at) / Fold change /veh GAP43 (11754022_s_at) / RFU A4GNT (11735810_at) / Fold change /veh A4GNT (11735810_at) / RFU PRB3 (11715151_x_at) / Fold change /veh PRB3 (11715151_x_at) / RFU TUBB4B (11761932_at) / Fold change /veh TUBB4B (11761932_at) / RFU CAPN14 (11732068_a_at) / Fold change /veh CAPN14 (11732068_a_at) / RFU TMCC2 (11721928_a_at) / Fold change /veh TMCC2 (11721928_a_at) / RFU IRGQ (11745062_a_at) / Fold change /veh IRGQ (11745062_a_at) / RFU FAM174B (11720279_a_at) / Fold change /veh FAM174B (11720279_a_at) / RFU TMPRSS4 (11748680_a_at) / Fold change /veh TMPRSS4 (11748680_a_at) / RFU FAM212B (11763350_a_at) / Fold change /veh FAM212B (11763350_a_at) / RFU PLEKHG5 (11743358_a_at) / Fold change /veh PLEKHG5 (11743358_a_at) / RFU ZSCAN30 (11745921_a_at) / Fold change /veh ZSCAN30 (11745921_a_at) / RFU CMKLR1 (11741424_a_at) / Fold change /veh CMKLR1 (11741424_a_at) / RFU LOC101060620 /// MAPK8IP1 (11723275_at) / Fold change /veh LOC101060620 /// MAPK8IP1 (11723275_at) / RFU SPTSSB (11747773_x_at) / Fold change /veh SPTSSB (11747773_x_at) / RFU PRSS12 (11739890_at) / Fold change /veh PRSS12 (11739890_at) / RFU BIN1 (11741810_x_at) / Fold change /veh BIN1 (11741810_x_at) / RFU WNT11 (11732464_a_at) / Fold change /veh WNT11 (11732464_a_at) / RFU C10orf10 (11716521_a_at) / Fold change /veh C10orf10 (11716521_a_at) / RFU C5orf56 (11738089_at) / Fold change /veh C5orf56 (11738089_at) / RFU CYB561 (11721691_x_at) / Fold change /veh CYB561 (11721691_x_at) / RFU ANKRD19P (11752326_a_at) / Fold change /veh ANKRD19P (11752326_a_at) / RFU OR2T12 /// OR2T33 /// OR2T8 (11738714_s_at) / Fold change /veh OR2T12 /// OR2T33 /// OR2T8 (11738714_s_at) / RFU VCAN (11748164_a_at) / Fold change /veh VCAN (11748164_a_at) / RFU JSRP1 (11732532_at) / Fold change /veh JSRP1 (11732532_at) / RFU KRTAP10-11 (11738290_x_at) / Fold change /veh KRTAP10-11 (11738290_x_at) / RFU MYO3A (11730013_a_at) / Fold change /veh MYO3A (11730013_a_at) / RFU EBF3 (11725865_a_at) / Fold change /veh EBF3 (11725865_a_at) / RFU CAMK2N1 (11719241_x_at) / Fold change /veh CAMK2N1 (11719241_x_at) / RFU C5orf56 (11738088_a_at) / Fold change /veh C5orf56 (11738088_a_at) / RFU OLFML3 (11715873_a_at) / Fold change /veh OLFML3 (11715873_a_at) / RFU LOC100653217 /// NTM (11731650_a_at) / Fold change /veh LOC100653217 /// NTM (11731650_a_at) / RFU MAPK11 (11762145_a_at) / Fold change /veh MAPK11 (11762145_a_at) / RFU FIZ1 (11724087_x_at) / Fold change /veh FIZ1 (11724087_x_at) / RFU OASL (11726364_x_at) / Fold change /veh OASL (11726364_x_at) / RFU SOX15 (11748057_x_at) / Fold change /veh SOX15 (11748057_x_at) / RFU CD79A (11719716_a_at) / Fold change /veh CD79A (11719716_a_at) / RFU HIST1H1D (11736915_at) / Fold change /veh HIST1H1D (11736915_at) / RFU CASKIN2 (11723855_a_at) / Fold change /veh CASKIN2 (11723855_a_at) / RFU LOC730098 (11760151_x_at) / Fold change /veh LOC730098 (11760151_x_at) / RFU OR4N2 (11742367_at) / Fold change /veh OR4N2 (11742367_at) / RFU PRRT2 (11749266_a_at) / Fold change /veh PRRT2 (11749266_a_at) / RFU SNX32 (11753110_a_at) / Fold change /veh SNX32 (11753110_a_at) / RFU CDHR5 (11726645_a_at) / Fold change /veh CDHR5 (11726645_a_at) / RFU RCAN1 (11760418_a_at) / Fold change /veh RCAN1 (11760418_a_at) / RFU FAM167A (11723789_a_at) / Fold change /veh FAM167A (11723789_a_at) / RFU FAM26E (11764081_at) / Fold change /veh FAM26E (11764081_at) / RFU ISYNA1 (11749810_s_at) / Fold change /veh ISYNA1 (11749810_s_at) / RFU ACY1 (11761880_at) / Fold change /veh ACY1 (11761880_at) / RFU 11764098_at / Fold change /veh 11764098_at / RFU SAMD14 (11745864_x_at) / Fold change /veh SAMD14 (11745864_x_at) / RFU NPB (11741838_a_at) / Fold change /veh NPB (11741838_a_at) / RFU TMPRSS6 (11731388_a_at) / Fold change /veh TMPRSS6 (11731388_a_at) / RFU KRTAP10-2 (11738614_at) / Fold change /veh KRTAP10-2 (11738614_at) / RFU ARHGAP8 /// PRR5-ARHGAP8 (11727945_x_at) / Fold change /veh ARHGAP8 /// PRR5-ARHGAP8 (11727945_x_at) / RFU KRTAP5-7 /// NADSYN1 (11734609_at) / Fold change /veh KRTAP5-7 /// NADSYN1 (11734609_at) / RFU RASL12 (11751679_a_at) / Fold change /veh RASL12 (11751679_a_at) / RFU CDKN2B (11736163_a_at) / Fold change /veh CDKN2B (11736163_a_at) / RFU PRF1 (11729649_at) / Fold change /veh PRF1 (11729649_at) / RFU, ZNF638 /// ZNF638-IT1 / Fold change vs veh, ZNF638 /// ZNF638-IT1 / RFU, PANK3 / Fold change vs veh, PANK3 / RFU, SH3YL1 / Fold change vs veh, SH3YL1 / RFU, ZEB2 / Fold change vs veh, ZEB2 / RFU, NRIP1 / Fold change vs veh, NRIP1 / RFU, PTTG1IP / Fold change vs veh, PTTG1IP / RFU, CAPN2 / Fold change vs veh, CAPN2 / RFU, MED14 / Fold change vs veh, MED14 / RFU, SNORA58 / Fold change vs veh, SNORA58 / RFU, C1orf63 / Fold change vs veh, C1orf63 / RFU, LRRFIP1 / Fold change vs veh, LRRFIP1 / RFU, NDUFAF7 / Fold change vs veh, NDUFAF7 / RFU, SLC12A2 / Fold change vs veh, SLC12A2 / RFU, IBTK / Fold change vs veh, IBTK / RFU, ESF1 / Fold change vs veh, ESF1 / Fold change vs veh, TMEM50B / RFU, TAOK1 / Fold change vs veh, TAOK1 / RFU, ACBD3 / Fold change vs veh, ACBD3 / RFU, TMA16 / Fold change vs veh, TMA16 / RFU, RWDD3 / Fold change vs veh, RWDD3 / RFU, BCAT1 / Fold change vs veh, BCAT1 / RFU, EDEM3 / Fold change vs veh, EDEM3 / RFU, TMEM33 / Fold change vs veh, TMEM33 / RFU, WDR75 / Fold change vs veh, WDR75 / RFU, AHCTF1 / Fold change vs veh, AHCTF1 / RFU, TFRC / Fold change vs veh, TFRC / RFU, ZDHHC17 / Fold change vs veh, ZDHHC17 / RFU, NOM1 / Fold change vs veh, NOM1 / RFU, ARL8B / Fold change vs veh, ARL8B / RFU, ZBTB11 / Fold change vs veh, ZBTB11 / RFU, TAMM41 / Fold change vs veh, TAMM41 / RFU, KIAA1704 /// LOC100996395 / Fold change vs veh, KIAA1704 /// LOC100996395 / RFU, ING1 / Fold change vs veh, ING1 / RFU, TRMT61B / Fold change vs veh, TRMT61B / RFU, FUBP3 / Fold change vs veh, FUBP3 / RFU, TP53 / Fold change vs veh, TP53 / RFU, TNKS2 / Fold change vs veh, TNKS2 / RFU, ZFP14 / Fold change vs veh, ZFP14 / RFU, ACTR2 / Fold change vs veh, ACTR2 / RFU, PPP3R1 / Fold change vs veh, PPP3R1 / RFU, PIK3R1 / Fold change vs veh, PIK3R1 / RFU, HNRNPA1 / Fold change vs veh, HNRNPA1 / RFU, RNF170 / Fold change vs veh, RNF170 / RFU, ZNF28 / Fold change vs veh, ZNF28 / RFU, RNGTT / Fold change vs veh, RNGTT / RFU, OGT / Fold change vs veh, OGT / RFU, BRD1 / Fold change vs veh, BRD1 / RFU, MARS / Fold change vs veh, MARS / RFU, ZNF655 / Fold change vs veh, ZNF655 / RFU, FAHD1 / Fold change vs veh, FAHD1 / RFU, BDP1 / Fold change vs veh, BDP1 / RFU, LRRCC1 / Fold change vs veh, LRRCC1 / RFU, ARID1A / Fold change vs veh, ARID1A / RFU, ZNF146 / Fold change vs veh, ZNF146 / RFU, ZNF330 / Fold change vs veh, ZNF330 / RFU, GPN3 / Fold change vs veh, GPN3 / RFU, C9orf123 / Fold change vs veh, C9orf123 / RFU, N4BP2L2 / Fold change vs veh, N4BP2L2 / RFU, ARFIP1 / Fold change vs veh, ARFIP1 / RFU, FAM179B / Fold change vs veh, FAM179B / RFU, BCL10 / Fold change vs veh, BCL10 / RFU, UHRF1BP1L / Fold change vs veh, UHRF1BP1L / RFU, BET1 / Fold change vs veh, BET1 / RFU, CNOT2 / Fold change vs veh, CNOT2 / RFU, ZNF268 / Fold change vs veh, ZNF268 / Fold change vs veh, ZNF507 / RFU, DGCR2 / Fold change vs veh, DGCR2 / RFU, WDSUB1 / Fold change vs veh, WDSUB1 / Fold change vs veh, HSP90B1 /// MIR3652 / RFU, ADSS / Fold change vs veh, ADSS / RFU, GK / Fold change vs veh, GK / RFU, ZNF148 / Fold change vs veh, ZNF148 / RFU, TAF9 / Fold change vs veh, TAF9 / RFU, SLC1A5 / Fold change vs veh, SLC1A5 / RFU, SLMO2 / Fold change vs veh, SLMO2 / RFU, ABCC4 / Fold change vs veh, ABCC4 / RFU, LOC101060439 /// RAP1B / Fold change vs veh, LOC101060439 /// RAP1B / RFU, RFX7 / Fold change vs veh, RFX7 / RFU, GTPBP10 / Fold change vs veh, GTPBP10 / RFU, CNEP1R1 / Fold change vs veh, CNEP1R1 / RFU, BIVM-ERCC5 /// ERCC5 / Fold change vs veh, BIVM-ERCC5 /// ERCC5 / RFU, ILF3 / Fold change vs veh, ILF3 / RFU 11762660_at / Fold change /veh 11762660_at / RFU VCAN (11757783_s_at) / Fold change /veh VCAN (11757783_s_at) / RFU DDX43 (11728927_at) / Fold change /veh DDX43 (11728927_at) / RFU KRT8 (11758188_x_at) / Fold change /veh KRT8 (11758188_x_at) / RFU NKD1 (11759106_at) / Fold change /veh NKD1 (11759106_at) / RFU SRD5A1 (11742802_a_at) / Fold change /veh SRD5A1 (11742802_a_at) / RFU TPSAB1 /// TPSB2 (11721975_s_at) / Fold change /veh TPSAB1 /// TPSB2 (11721975_s_at) / RFU GSTM3 (11746129_a_at) / Fold change /veh GSTM3 (11746129_a_at) / RFU IL23R (11737362_x_at) / Fold change /veh IL23R (11737362_x_at) / RFU TMEM51 (11727254_a_at) / Fold change /veh TMEM51 (11727254_a_at) / RFU PIWIL2 (11732686_x_at) / Fold change /veh PIWIL2 (11732686_x_at) / RFU ORM1 (11744905_x_at) / Fold change /veh ORM1 (11744905_x_at) / RFU CCDC152 (11743942_at) / Fold change /veh CCDC152 (11743942_at) / RFU ECM1 (11717891_a_at) / Fold change /veh ECM1 (11717891_a_at) / RFU IL23R (11748794_a_at) / Fold change /veh IL23R (11748794_a_at) / RFU TNFAIP8L3 (11732012_x_at) / Fold change /veh TNFAIP8L3 (11732012_x_at) / RFU MBOAT4 (11741988_at) / Fold change /veh MBOAT4 (11741988_at) / RFU 11764193_at / Fold change /veh 11764193_at / RFU TMEM53 (11763286_at) / Fold change /veh TMEM53 (11763286_at) / RFU MAGEB2 (11727129_at) / Fold change /veh MAGEB2 (11727129_at) / RFU TMEM200A (11744735_a_at) / Fold change /veh TMEM200A (11744735_a_at) / RFU CCDC152 (11751479_a_at) / Fold change /veh CCDC152 (11751479_a_at) / RFU FAM211A (11726209_a_at) / Fold change /veh FAM211A (11726209_a_at) / RFU RGS16 (11746705_a_at) / Fold change /veh RGS16 (11746705_a_at) / RFU VCAN (11755009_s_at) / Fold change /veh VCAN (11755009_s_at) / RFU RHOB (11743442_s_at) / Fold change /veh RHOB (11743442_s_at) / RFU RGS16 (11720943_a_at) / Fold change /veh RGS16 (11720943_a_at) / RFU RGS16 (11720944_at) / Fold change /veh RGS16 (11720944_at) / RFU, VPS4B / Fold change vs veh, VPS4B / RFU, CREB1 / Fold change vs veh, CREB1 / RFU, DNAJC13 / Fold change vs veh, DNAJC13 / RFU, GNAQ / Fold change vs veh, GNAQ / RFU, CDK5R1 / Fold change vs veh, CDK5R1 / RFU, ZRANB3 / Fold change vs veh, ZRANB3 / RFU, CUL4A / Fold change vs veh, CUL4A / RFU, CCNY / Fold change vs veh, CCNY / RFU, UFL1 / Fold change vs veh, UFL1 / RFU, COG3 / Fold change vs veh, COG3 / RFU, DIAPH2 / Fold change vs veh, DIAPH2 / RFU, SKA2 / Fold change vs veh, SKA2 / RFU, AFF3 / Fold change vs veh, AFF3 / RFU, LMF1 / Fold change vs veh, LMF1 / RFU, IPO11 / Fold change vs veh, IPO11 / RFU, DFFB / Fold change vs veh, DFFB / RFU, FOXP1 / Fold change vs veh, FOXP1 / RFU, CARD8 / Fold change vs veh, CARD8 / RFU, STRN3 / Fold change vs veh, STRN3 / RFU, ADK / Fold change vs veh, ADK / RFU, RASSF2 / Fold change vs veh, RASSF2 / RFU, WIPF1 / Fold change vs veh, WIPF1 / RFU, LARP1B / Fold change vs veh, LARP1B / RFU, RASA1 / Fold change vs veh, RASA1 / RFU, RB1 / Fold change vs veh, RB1 / RFU, PPFIA1 / Fold change vs veh, PPFIA1 / RFU, MAT2A / Fold change vs veh, MAT2A / RFU, CCT5 / Fold change vs veh, CCT5 / RFU, WDR92 / Fold change vs veh, WDR92 / RFU, CUX1 / Fold change vs veh, CUX1 / RFU, TTC7A / Fold change vs veh, TTC7A / RFU, TMEM135 / Fold change vs veh, TMEM135 / RFU, DEPTOR / Fold change vs veh, DEPTOR / RFU, CPM / Fold change vs veh, CPM / RFU, DNAJB6 / Fold change vs veh, DNAJB6 / RFU, CACNA2D3 / Fold change vs veh, CACNA2D3 / RFU, DTX4 / Fold change vs veh, DTX4 / RFU, TFCP2 / Fold change vs veh, TFCP2 / RFU, GMCL1 /// GMCL1P1 / Fold change vs veh, GMCL1 /// GMCL1P1 / RFU, AEBP2 / Fold change vs veh, AEBP2 / RFU, SNHG1 /// SNORD22 /// SNORD25 /// SNORD26 /// SNORD27 /// SNORD28 /// SNORD29 /// SNORD31 / Fold change vs veh, SNHG1 /// SNORD22 /// SNORD25 /// SNORD26 /// SNORD27 /// SNORD28 /// SNORD29 /// SNORD31 / Fold change (Aza/veh), C12orf56 (ProbeSet 11735607_a_at) / Fold change (ACY-1035/veh), C12orf56 (ProbeSet 11735607_a_at) / Fold change (Aza/veh), FGFR1OP (ProbeSet 11751329_s_at) / Fold change (ACY-1035/veh), FGFR1OP (ProbeSet 11751329_s_at) / Fold change (Aza/veh), VPS36 (ProbeSet 11739960_a_at) / Fold change (ACY-1035/veh), VPS36 (ProbeSet 11739960_a_at) / RFU SYPL1 (11715823_x_at) / Fold change /veh SYPL1 (11715823_x_at) / RFU IGFBP7 (11715501_s_at) / Fold change /veh IGFBP7 (11715501_s_at) / RFU REEP3 (11722064_at) / Fold change /veh REEP3 (11722064_at) / RFU IGLL1 (11728026_x_at) / Fold change /veh IGLL1 (11728026_x_at): dose or concentration left out as unconfirmed", "conditions": "ProbeSet 11747889_x_at; LIST B"}
{"smiles": "Nc1ncn([C@@H]2O[C@H](CO)[C@@H](O)[C@H]2O)c(=O)n1", "note": "[azacitidine]", "values": [{"measurement": "RFU, SH3YL1", "result": 57.53, "unit": "RFU"}]}
